# pEC50: −log10 of the molar value.
# Biological target: T1, NPC1 (Homo sapiens, UniProt O15118)
# T1 construct: full-length WT human NPC1, C-terminal Strep tag, in peptidiscs
# T1 sequence (O15118 23-1278): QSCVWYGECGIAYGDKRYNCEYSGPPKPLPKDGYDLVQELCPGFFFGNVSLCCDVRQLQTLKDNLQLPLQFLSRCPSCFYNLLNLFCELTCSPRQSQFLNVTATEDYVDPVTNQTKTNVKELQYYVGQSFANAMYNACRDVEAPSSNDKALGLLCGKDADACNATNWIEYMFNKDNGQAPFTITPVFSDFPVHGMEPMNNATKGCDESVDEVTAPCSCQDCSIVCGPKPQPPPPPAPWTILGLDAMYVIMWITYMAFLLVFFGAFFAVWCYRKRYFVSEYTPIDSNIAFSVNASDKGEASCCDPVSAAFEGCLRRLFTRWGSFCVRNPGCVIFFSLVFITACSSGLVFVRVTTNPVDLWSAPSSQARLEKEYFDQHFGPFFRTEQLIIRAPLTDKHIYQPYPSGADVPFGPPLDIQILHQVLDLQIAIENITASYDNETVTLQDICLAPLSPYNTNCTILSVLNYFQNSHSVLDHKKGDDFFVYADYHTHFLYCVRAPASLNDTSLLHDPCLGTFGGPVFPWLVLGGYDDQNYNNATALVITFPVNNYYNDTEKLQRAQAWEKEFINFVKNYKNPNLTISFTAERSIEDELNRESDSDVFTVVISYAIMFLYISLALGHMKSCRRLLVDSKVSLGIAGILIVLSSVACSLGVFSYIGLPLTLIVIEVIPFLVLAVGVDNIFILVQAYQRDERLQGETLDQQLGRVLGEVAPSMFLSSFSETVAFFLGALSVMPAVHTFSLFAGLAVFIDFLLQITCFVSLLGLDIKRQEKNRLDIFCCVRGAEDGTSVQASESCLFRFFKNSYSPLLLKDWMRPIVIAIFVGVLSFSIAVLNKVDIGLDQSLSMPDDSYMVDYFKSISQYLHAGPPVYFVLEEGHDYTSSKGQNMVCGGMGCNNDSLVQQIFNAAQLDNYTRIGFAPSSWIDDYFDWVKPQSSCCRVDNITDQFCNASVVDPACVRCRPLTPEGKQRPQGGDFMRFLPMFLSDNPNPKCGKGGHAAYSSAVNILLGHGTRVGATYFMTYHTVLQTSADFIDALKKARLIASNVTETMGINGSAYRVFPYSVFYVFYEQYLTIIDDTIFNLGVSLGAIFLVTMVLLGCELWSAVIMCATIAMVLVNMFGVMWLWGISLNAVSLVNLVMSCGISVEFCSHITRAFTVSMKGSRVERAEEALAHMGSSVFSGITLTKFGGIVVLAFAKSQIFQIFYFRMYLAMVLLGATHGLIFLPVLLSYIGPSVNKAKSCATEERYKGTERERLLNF
# Assay: microscale thermophoresis; nanoDSF thermal stability with purified NPC1 (EC50 approximately […])
# Assay type: binding
substance,measurement,value
mo56-hydroxycholesterol [mo56Hc],pEC50,6.75

# — article PMC11530122, “Mutant induced neurons and humanized mice enable identification of Niemann-Pick type C1 proteostatic therapies” (JCI Insight, 2024)
